Holding throughout (experiment): stopped-flow absorption titration
Common to all, as to assay type: binding

The target in test [1] is T1, BesC (Streptantibioticus cattleyicolor, UniProt F8JJ25).
Test [2] addresses T1, BesC. This is another data set of the same source.
For test [3], the target named is T1, BesC. The source holds these as a separate data set.

This note sets out measurements from article PMC9047515 (Biochemistry, 2022).

Like-named read-outs stand apart in the source and are kept apart here. Where only a bound is given, the exact number is not on record here.

T1 sequence (F8JJ25 whole entry): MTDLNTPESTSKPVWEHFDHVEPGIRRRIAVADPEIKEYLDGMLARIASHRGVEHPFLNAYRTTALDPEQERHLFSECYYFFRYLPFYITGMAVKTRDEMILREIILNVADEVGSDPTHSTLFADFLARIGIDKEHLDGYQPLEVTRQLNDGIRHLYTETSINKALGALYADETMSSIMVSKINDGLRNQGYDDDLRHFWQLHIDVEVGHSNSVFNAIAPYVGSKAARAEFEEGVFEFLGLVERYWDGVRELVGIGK

One may read the Kd as the free concentration of one partner at which half of the binding sites on the other are occupied at equilibrium, for simple one-to-one binding. On to `NCCSC[C@H](N)C(=O)O` [4-thia-L-Lys, S-(2-aminoethyl)-L-cysteine], for which the Kd in test [1] is below 30 µM. As for `N[C@@H](CCCCO)C(=O)O` [6-OH-L-Nle], the Kd in test [2] came to 10000 ± 1000 µM.

For `NCCCC[C@H](N)C(=O)O` [L-Lys], binding in test [3] was put at a Kd of 300 ± 100 µM.
